Experimental data taken from patent publication US9056832B2, “Pyridine compounds and the users thereof” (Purdue Pharma L.P., priority 2010, dated 2015).

Biological target: human Nav1.7 (Homo sapiens (Human), UniProt Q15858)
Test: FLIPR or FLIPR TETRA sodium dye assay with KCl and test article pre-incubation
Assay type: cell-based
Details: read-out: Nav1.7 IC50 (μM) ± SEM

Chain of human Nav1.7 (Q15858 other isoform, or with tags, fused parts or gaps): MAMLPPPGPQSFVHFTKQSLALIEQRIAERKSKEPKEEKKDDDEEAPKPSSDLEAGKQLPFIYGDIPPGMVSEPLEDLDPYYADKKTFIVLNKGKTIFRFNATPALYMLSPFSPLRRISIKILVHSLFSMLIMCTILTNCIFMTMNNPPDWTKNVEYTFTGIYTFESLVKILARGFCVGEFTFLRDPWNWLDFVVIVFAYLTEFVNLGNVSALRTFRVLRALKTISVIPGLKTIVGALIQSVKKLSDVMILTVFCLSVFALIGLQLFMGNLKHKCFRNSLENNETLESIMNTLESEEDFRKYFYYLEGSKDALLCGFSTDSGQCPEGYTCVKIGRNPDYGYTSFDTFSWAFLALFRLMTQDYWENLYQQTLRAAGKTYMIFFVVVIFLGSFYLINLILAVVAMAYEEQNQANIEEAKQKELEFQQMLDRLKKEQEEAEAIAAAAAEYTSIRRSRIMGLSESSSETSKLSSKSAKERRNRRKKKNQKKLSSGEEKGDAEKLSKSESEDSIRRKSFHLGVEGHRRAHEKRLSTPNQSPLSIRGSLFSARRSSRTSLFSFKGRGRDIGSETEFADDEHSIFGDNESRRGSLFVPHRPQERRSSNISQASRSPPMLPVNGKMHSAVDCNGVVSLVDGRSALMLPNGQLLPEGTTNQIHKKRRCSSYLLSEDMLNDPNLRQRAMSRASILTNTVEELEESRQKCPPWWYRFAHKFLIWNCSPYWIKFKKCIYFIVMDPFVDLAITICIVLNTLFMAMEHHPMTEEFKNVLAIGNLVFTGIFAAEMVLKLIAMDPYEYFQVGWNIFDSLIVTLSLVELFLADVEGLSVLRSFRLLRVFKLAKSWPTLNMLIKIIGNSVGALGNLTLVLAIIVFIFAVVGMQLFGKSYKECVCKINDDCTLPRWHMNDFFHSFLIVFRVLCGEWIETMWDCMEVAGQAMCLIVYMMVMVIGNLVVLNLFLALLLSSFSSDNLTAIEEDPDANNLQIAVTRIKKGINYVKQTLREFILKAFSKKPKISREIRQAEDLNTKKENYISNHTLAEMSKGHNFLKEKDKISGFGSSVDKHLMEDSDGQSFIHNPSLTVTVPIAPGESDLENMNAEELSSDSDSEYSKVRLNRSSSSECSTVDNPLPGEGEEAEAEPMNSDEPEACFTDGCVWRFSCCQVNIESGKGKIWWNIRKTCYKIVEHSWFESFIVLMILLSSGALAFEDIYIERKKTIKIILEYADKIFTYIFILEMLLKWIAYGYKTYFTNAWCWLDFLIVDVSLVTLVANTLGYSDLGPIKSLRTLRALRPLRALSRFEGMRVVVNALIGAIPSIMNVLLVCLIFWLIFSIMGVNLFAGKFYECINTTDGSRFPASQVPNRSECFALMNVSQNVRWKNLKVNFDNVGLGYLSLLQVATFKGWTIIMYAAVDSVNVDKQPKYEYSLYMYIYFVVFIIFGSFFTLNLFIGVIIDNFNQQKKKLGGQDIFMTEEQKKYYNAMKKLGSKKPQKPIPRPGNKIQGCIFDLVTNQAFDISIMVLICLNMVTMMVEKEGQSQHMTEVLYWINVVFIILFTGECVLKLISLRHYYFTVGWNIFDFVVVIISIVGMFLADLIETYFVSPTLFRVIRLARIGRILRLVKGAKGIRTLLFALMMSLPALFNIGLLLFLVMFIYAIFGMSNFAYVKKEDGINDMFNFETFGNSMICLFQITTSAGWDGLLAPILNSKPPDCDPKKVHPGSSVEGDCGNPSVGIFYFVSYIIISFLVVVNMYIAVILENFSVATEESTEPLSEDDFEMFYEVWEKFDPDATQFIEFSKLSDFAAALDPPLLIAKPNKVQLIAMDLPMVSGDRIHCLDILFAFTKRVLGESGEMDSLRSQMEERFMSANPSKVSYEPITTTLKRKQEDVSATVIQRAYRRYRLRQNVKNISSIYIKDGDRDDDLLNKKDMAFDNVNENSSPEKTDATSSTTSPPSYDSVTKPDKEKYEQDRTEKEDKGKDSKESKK

Row | SMILES | IC50 [µM]
1 | NC(=O)c1cc(NCC2CCNCC2)cc(-c2ccc(Oc3ccc(F)cc3)cc2)n1 [compound 57, 6-(4-(4-fluorophenoxy)phenyl)-4-((piperidin-4-ylmethyl)amino) picolinamide] | 0.83 ± 0.02
2 | NC(=O)c1cc(NCCN2CCNC2=O)cc(-c2ccc(Oc3ccc(F)cc3)cc2)n1 [compound 58, 6-(4-(4-fluorophenoxy)phenyl)-4-((2-(2-oxoimidazolidin-1-yl)ethyl)amino) picolinamide] | 1.57 ± 0.33
3 | NC(=O)c1cc(N2CCC(C(=O)O)CC2)cc(-c2ccc(Oc3ccc(F)cc3)cc2)n1 [compound 59, 1-(2-carbamoyl-6-(4-(4-fluorophenoxy)phenyl)pyridin-4-yl) piperidine-4-carboxylic acid] | 2.28 ± 0.2
4 | O=C1NCCN1CCNCCc1cccc(-c2ccc(Oc3ccc(F)cc3)cc2)n1 [compound 64, 1-(2-((2-(6-(4-(4-fluorophenoxy)phenyl)pyridin-2-yl)ethyl)amino)ethyl) imidazolidin-2-one] | 0.1 ± 0.3
5 | O=C1NCCN1CCNCc1cccc(-c2ccc(Oc3ncc(C(F)(F)F)cc3Cl)cc2)n1 [compound 66, 1-(2-(((6-(4-((3-chloro-5-(trifluoromethyl)pyridin-2-yl)oxy)phenyl)pyridin-2-yl)methyl)amino)ethyl) imidazolidin-2-one] | 0.13 ± 0.03
6 | N#Cc1cc(Oc2ccc(-c3cccc(CNCCN4CCNC4=O)n3)cc2)ccc1C(F)(F)F [compound 70, 5-(4-(6-(((2-(2-oxoimidazolidin-1-yl)ethyl)amino)methyl)pyridin-2-yl)phenoxy)-2-(trifluoromethyl) benzonitrile] | 0.23 ± 0.08
7 | CS(=O)(=O)c1ccc(Oc2ccc(-c3cccc(CNCCN4CCNC4=O)n3)cc2)cc1 [compound 71, 1-(2-(((6-(4-(4-(methylsulfonyl)phenoxy)phenyl)pyridin-2-yl)methyl)amino)ethyl) imidazolidin-2-one] | 0.35 ± 0.05

Same assay, conditions: recombinant human Nav1.7 in HEK293 cells; CoroNa Green sodium dye; veratridine + scorpion venom; read-out: Nav1.7 IC50 (μM) ± SEM

Row | SMILES | IC50 [µM]
8 | NC(=O)CN1CCC(CNc2cc(C(N)=O)nc(-c3ccc(Oc4ccc(F)cc4)cc3)c2)CC1 [compound 52, 4-(((1-(2-amino-2-oxoethyl)piperidin-4-yl)methyl)amino)-6-(4-(4-fluorophenoxy)phenyl) picolinamide] | 0.2 ± 0.08
9 | NC(=O)c1cc(NCCN2CCOCC2)cc(-c2ccc(Oc3ccc(F)cc3)cc2)n1 [compound 53, 6-(4-(4-fluorophenoxy)phenyl)-4-((2-morpholinoethyl)amino) picolinamide] | 0.22 ± 0.06
10 | NC(=O)c1cc(NCCCn2ccnc2)cc(-c2ccc(Oc3ccc(F)cc3)cc2)n1 [compound 54, 4-((3-(1H-imidazol-1-yl)propyl)amino)-6-(4-(4-fluorophenoxy)phenyl) picolinamide] | 0.22 ± 0.06
11 | NC(=O)c1cc(N2CCNCC2)cc(-c2ccc(Oc3ccc(F)cc3)cc2)n1 [compound 55, 6-(4-(4-fluorophenoxy)phenyl)-4-(piperazin-1-yl) picolinamide] | 0.23 ± 0.06
12 | NC(=O)c1cc(N2CCC(C(N)=O)CC2)cc(-c2ccc(Oc3ccc(F)cc3)cc2)n1 [compound 56, 4-(4-carbamoylpiperidin-1-yl)-6-(4-(4-fluorophenoxy)phenyl) picolinamide] | 0.31 ± 0.05
13 | NC(=O)c1cc(CNCCN2CCNC2=O)cc(-c2ccc(Oc3ccc(F)cc3)cc2)n1 [compound 60, 6-(4-(4-fluorophenoxy)phenyl)-4-(((2-(2-oxoimidazolidin-1-yl)ethyl)amino)methyl)picolinamide] | 0.16 ± 0.03
14 | O=C1NCCN1CCNCc1cccc(-c2ccc(Oc3ccc(C(F)(F)F)cc3)cc2)n1 [compound 61, 1-(2-(((6-(4-(4-(trifluoromethyl)phenoxy)phenyl)pyridin-2-yl)methyl)amino)ethyl)imidazolidin-2-one] | 0.03 ± 0.01
15 | O=C1NCCN1CCNCc1cccc(-c2ccc(Oc3ccc(F)cc3)cc2)n1 [compound 62, 1-(2-(((6-(4-(4-fluorophenoxy)phenyl)pyridin-2-yl)methyl)amino)ethyl)imidazolidin-2-one] | 0.07 ± 0.02
16 | N#Cc1ccc(Oc2ccc(-c3cccc(CNCCN4CCNC4=O)n3)cc2)c(C(F)(F)F)c1 [compound 65, 4-(4-(6-(((2-(2-oxoimidazolidin-1-yl)ethyl)amino)methyl)pyridin-2-yl)phenoxy)-3-(trifluoromethyl) benzonitrile] | 0.12 ± 0.02
17 | N#Cc1ccc(Oc2ccc(-c3cccc(CNCCN4CCNC4=O)n3)cc2)cc1 [compound 67, 4-(4-(6-(((2-(2-oxoimidazolidin-1-yl)ethyl)amino)methyl)pyridin-2-yl)phenoxy)benzonitrile] | 0.17 ± 0.01
18 | N#CCN(CCN1CCNC1=O)Cc1cccc(-c2ccc(Oc3ccc(F)cc3)cc2)n1 [compound 69, 2-(((6-(4-(4-fluorophenoxy)phenyl)pyridin-2-yl)methyl) (2-(2-oxoimidazolidin-1-yl)ethyl)amino) acetonitrile] | 0.19 ± 0.05
19 | NC(=O)CN(CCN1CCNC1=O)Cc1cccc(-c2ccc(Oc3ccc(F)cc3)cc2)n1 [compound 72, 2-(((6-(4-(4-fluorophenoxy)phenyl)pyridin-2-yl)methyl)(2-(2-oxoimidazolidin-1-yl)ethyl)amino) acetamide] | 0.76 ± 0.03
20 | CC(C)NC(=O)N1CCN(c2cc(C(N)=O)nc(-c3ccc(Oc4ccc(F)cc4)cc3)c2)CC1 [compound 73, 4-(2-carbamoyl-6-(4-(4-fluorophenoxy)phenyl)pyridin-4-yl)-N-isopropylpiperazine-1-carboxamide] | 0.09 ± 0.03
21 | NC(=O)c1cc(N2CCN(c3ncccn3)CC2)cc(-c2ccc(Oc3ccc(F)cc3)cc2)n1 [compound 74, 6-(4-(4-fluorophenoxy)phenyl)-4-(4-(pyrimidin-2-yl)piperazin-1-yl) picolinamide] | 0.09 ± 0.01
22 | NC(=O)c1cc(N2CCN(C(N)=O)CC2)cc(-c2ccc(Oc3ccc(F)cc3)cc2)n1 [compound 76, 4-(2-carbamoyl-6-(4-(4-fluorophenoxy)phenyl)pyridin-4-yl) piperazine-1-carboxamide] | 0.53 ± 0.07
23 | NC(=O)c1cc(N2CCN(C3=NCCCN3)CC2)cc(-c2ccc(Oc3ccc(F)cc3)cc2)n1 [compound 77, 6-(4-(4-fluorophenoxy)phenyl)-4-(4-(1,4,5,6-tetrahydropyrimidin-2-yl)piperazin-1-yl)picolinamide] | 4.27 ± 0.69

Row | SMILES | IC50 [µM]
24 | O=C(c1cc(N2CCNCC2)cc(-c2ccc(Oc3ccc(F)cc3)cc2)n1)N1CCNCC1 [compound 78, (6-(4-(4-fluorophenoxy)phenyl)-4-(piperazin-1-yl)pyridin-2-yl) (piperazin-1-yl) methanone] | 10 to 20
25 | O=C(NCCN1CCCCC1)c1cc(CO)cc(-c2ccc(Oc3ccc(F)cc3)cc2)n1 [compound 79, 6-(4-(4-fluorophenoxy)phenyl)-4-(hydroxymethyl)-N-(2-(piperidin-1-yl)ethyl)picolinamide] | 0.41 ± 0.03
26 | N=C(N)N1CCN(c2cc(C(N)=O)nc(-c3ccc(Oc4ccc(F)cc4)cc3)c2)CC1 [compound 80, 4-(4-carbamimidoylpiperazin-1-yl)-6-(4-(4-fluorophenoxy)phenyl)picolinamide] | 1.3 ± 0.17
27 | NC(=O)c1cc(C(=O)NCCN2CCCCC2)nc(-c2ccc(Oc3ccc(F)cc3)cc2)c1 [compound 81, 6-(4-(4-fluorophenoxy)phenyl)-N2-(2-(piperidin-1-yl)ethyl)pyridine-2,4-dicarboxamide] | 1.46 ± 0.43
28 | CC(C)NC(=O)N1CCN(c2cc(C#N)nc(-c3ccc(Oc4ccc(F)cc4)cc3)c2)CC1 [compound 82, 4-(2-cyano-6-(4-(4-fluorophenoxy)phenyl)pyridin-4-yl)-N-isopropylpiperazine-1-carboxamide] | 1.94 ± 0.21
29 | N#Cc1cc(N2CCN(C(=N)N)CC2)cc(-c2ccc(Oc3ccc(F)cc3)cc2)n1 [compound 83, 4-(2-cyano-6-(4-(4-fluorophenoxy)phenyl)pyridin-4-yl) piperazine-1-carboximidamide] | 1.95 ± 0.52
30 | NC(=O)c1cc(NC(=O)Nc2ccccc2)cc(-c2ccc(Oc3ccc(F)cc3)cc2)n1 [compound 84, 6-(4-(4-fluorophenoxy)phenyl)-4-(3-phenylureido) picolinamide] | 4.11 ± 0.93
31 | O=C(O)c1cc(C(=O)NCCN2CCCCC2)nc(-c2ccc(Oc3ccc(F)cc3)cc2)c1 [compound 85, 2-(4-(4-fluorophenoxy)phenyl)-6-((2-(piperidin-1-yl)ethyl)carbamoyl)iso nicotinic acid] | 6.59 ± 2.17
32 | O=C(NCCN1CCCCC1)c1cc(-c2nnn[nH]2)cc(-c2ccc(Oc3ccc(F)cc3)cc2)n1 [compound 86, 6-(4-(4-fluorophenoxy)phenyl)-N-(2-(piperidin-1-yl)ethyl)-4-(1H-tetrazol-5-yl) picolinamide] | 9.21 ± 1.15
33 | NC(=O)c1cc(NC(=O)NCC(=O)O)cc(-c2ccc(Oc3ccc(F)cc3)cc2)n1 [compound 87, 2-(3-(2-carbamoyl-6-(4-(4-fluorophenoxy)phenyl)pyridin-4-yl)ureido)acetic acid] | > 20
34 | C[C@H](NCc1cccc(-c2ccc(Oc3ccc(F)cc3)cc2)n1)C(N)=O [compound 88, (S)-2-({6-[4-(4-Fluoro-phenoxyl)-phenyl]-pyridin-2-yl-methyl}-amino) propionamide] | 0.23 ± 0.09
35 | NC(=O)c1cc(-c2ccc(Oc3ccc(F)cc3)cc2)nc([C@@H](O)CO)c1 [compound 89, (R)-2-(1,2-dihydroxyethyl)-6-(4-(4-fluorophenoxy)phenyl) isonicotinamide] | 7.13 ± 0.5
36 | CN(c1ccc(C(=O)O)cc1)c1cc(C(N)=O)nc(-c2ccc(Oc3ccc(F)cc3)cc2)c1 [compound 91, 4-((2-carbamoyl-6-(4-(4-fluorophenoxy)phenyl)pyridin-4-yl)(methyl)amino)benzoic acid] | > 20
37 | O=C(O)CN(c1ccccc1)c1cc(C(=O)O)nc(-c2ccc(Oc3ccc(F)cc3)cc2)c1 [compound 92, 4-((carboxymethyl) (phenyl)amino)-6-(4-(4-fluorophenoxy)phenyl)picolinic acid] | 3.83 ± 0.64
38 | O=C(O)c1cc(-n2cc(C(=O)O)c3ccccc32)cc(-c2ccc(Oc3ccc(F)cc3)cc2)n1 [compound 93, 1-(2-carboxy-6-(4-(4-fluorophenoxy)phenyl)pyridin-4-yl)-1H-indole-3-carboxylic acid] | > 20
